Measured values reported in patent publication US20250066286A1, “COMPOSITIONS OF (Z)-ENDOXIFEN AND METHODS OF ENRICHMENT THEREOF” (Atossa Therapeutics, Inc., priority 2022, published 2025).

Test: Single solvent slurries of (Z)-endoxifen (XRPD of recovered solid)
Type: physicochemical
Experimental: Further solubility analyses were then performed for solvents which formed suspensions at 50° C. […] The suspensions were recovered and filtered with a nylon filter (0.22 μm) during centrifugation at 4000 rpm for 3 minutes. The solid (Z)-endoxifen collected through filtration was analyzed by XRPD. (Z)-endoxifen remaining in the filtrate was precipitated by addition of antisolvent and also subjected to XRPD analysis.

[1] = SLHT-1D-ACN(100 mg/ml) - Form I reference, FIG. 76: acetonitrile, 100 mg/mL, 50° C., 1 d
[2] = SLHT-1D-ACT(100 mg/ml), FIG. 77: acetone, 100 mg/mL, 40° C., 1 d
[3] = SLRT-14D-BME, FIG. 74: butyl methyl ether, 10 mg/mL, RT, 14 d

SMILES: CC/C(=C(\c1ccc(O)cc1)c1ccc(OCCNC)cc1)c1ccccc1 [(Z)-endoxifen, (Z)-4-(1-(4-(2-(methylamino)ethoxy)phenyl)-2-phenylbut-1-enyl)phenol]
- Output Main phase [phase] (SLHT-1D-ACN(50 mg/ml), FIG. 80: acetonitrile, 50 mg/mL, 50° C., 1 d): Form I
- Output Main phase [phase] (SLHT-1D-ACN(50 mg/ml)-vial attached, FIG. 92: acetonitrile, 50 mg/mL, 50° C., 1 d): Form I
- Output Crystallinity [high/low/SC/oriented] [1]: high
- Output Main phase [phase] [1]: Form I
- Output Main phase [phase] (SLHT-1D-ACT(50 mg/ml), FIG. 80: acetone, 50 mg/mL, 40° C., 1 d): Form I
- Output Crystallinity [high/low/SC/oriented] [2]: high
- Output Main phase [phase] [2]: Form I
- Output Main phase [phase] (SLHT-1D-BME, FIG. 75: butyl methyl ether, 10 mg/mL, 40° C., 1 d): Form I
- Output Main phase [phase] (SLHT-1D-H2O, FIG. 75: water, 10 mg/mL, 50° C., 1 d): Form I
- Output Main phase [phase] (SLHT-1D-HEP, FIG. 75: heptane, 10 mg/mL, 50° C., 1 d): Form I
- Output Main phase [phase] (SLRT-1D-DMF(300 mg/ml), FIG. 81: dimethylformamide, 300 mg/mL, RT, 1 d): Form I
- Output Main phase [phase] (SLRT-1D-ETA(20 mg/ml), FIG. 81: ethyl acetate, 20 mg/mL, RT, 1 d): Form I
- Output Main phase [phase] (SLRT-2D-THF(170 mg/ml), FIG. 81: tetrahydrofuran, 169.7 mg/mL, RT, 2 d): Form I
- Output Main phase [phase] (SLRT-3D-ACT(40 mg/ml), FIG. 78: acetone, 40 mg/mL, RT, 3 d): Form I
- Output Main phase [phase] (SLRT-3D-BME, FIG. 73: butyl methyl ether, 10 mg/mL, RT, 3 d): Form I
- Output Main phase [phase] (SLRT-3D-ETH(40 mg/ml), FIG. 78: ethanol, 40 mg/mL, RT, 3 d): Form I
- Output Main phase [phase] (SLRT-3D-H2O, FIG. 73: water, 10 mg/mL, RT, 3 d): Form I
- Output Main phase [phase] (SLRT-3D-HEP, FIG. 73: heptane, 10 mg/mL, RT, 3 d): Form I
- Output Main phase [phase] (SLRT-6HRS-ACT(40 mg/ml), FIG. 81: acetone, 40 mg/mL, RT, 6 h): Form I
- Output Main phase [phase] (SLRT-14D-2PR(100 mg/ml), FIG. 83: 2-propanol, 100 mg/mL, RT, 14 d): Form I
- Output Main phase [phase] (SLRT-14D-ACN(100 mg/ml), FIG. 83: acetonitrile, 100 mg/mL, RT, 14 d): Form I
- Output Main phase [phase] (SLRT-14D-ACT(40 mg/ml), FIG. 79: acetone, 40 mg/mL, RT, 14 d): Form I
- Output Main phase [phase] (SLRT-14D-ACT(100 mg/ml), FIG. 83: acetone, 100 mg/mL, RT, 14 d): Form I
- Output Main phase [phase] (SLRT-14D-BAC(100 mg/ml), FIG. 82: butyl acetate, 100 mg/mL, RT, 14 d): Form I
- Output Crystallinity [high/low/SC/oriented] [3]: low
- Output Main phase [phase] [3]: Form I
- Output Main phase [phase] (SLRT-14D-ETA(100 mg/ml), FIG. 82: ethyl acetate, 100 mg/mL, RT, 14 d): Form I
- Output Main phase [phase] (SLRT-14D-ETH(40 mg/ml), FIG. 79: ethanol, 40 mg/mL, RT, 14 d): Form I
- Output Main phase [phase] (SLRT-14D-ETH(100 mg/ml), FIG. 82: ethanol, 100 mg/mL, RT, 14 d): Form I
- Output Main phase [phase] (SLRT-14D-H2O, FIG. 74: water, 10 mg/mL, RT, 14 d): Form I
- Output Main phase [phase] (SLRT-14D-HEP, FIG. 74: heptane, 10 mg/mL, RT, 14 d): Form I
- Output Main phase [phase] (SLRT-14D-MET(50 mg/ml), FIG. 84: methanol, 50 mg/mL, RT, 14 d): Form I
- Output Main phase [phase] (SLRT-14D-MIBK(100 mg/ml), FIG. 82: methyl isobutyl ketone, 100 mg/mL, RT, 14 d): Form I
- Output Main phase [phase] (SLRT-14D-TOL(100 mg/ml), FIG. 83: toluene, 100 mg/mL, RT, 14 d): Form I
- Polymorphic form recovered (XRPD) (all single solvent slurries): Form I
